Measured values as given in ChEMBL document CHEMBL3797052 (Eur J Med Chem, 2016).

tested on: not listed separately; experiment: Antiproliferative activity against human OVCAR8 cells assessed as cell growth at 10^-4 M after 48 hrs by sulforhodamine B assay; assay type: functional; settings: OVCAR-8, 48 h, read-out: Activity

Row | SMILES | growth at 100 µM [%]
1 | CNC(=O)c1cc(Oc2ccc3nc(NC(=O)Nc4ccc(Cl)c(C(F)(F)F)c4)sc3c2)ccn1 | -25

tested on: NCI-H460; experiment: Antiproliferative activity against human NCI-H460 cells assessed as cell growth at 10^-8 M after 48 hrs by sulforhodamine B assay; assay type: functional; settings: NCI-H460, 48 h, read-out: Activity

Row | SMILES | growth at 0.01 µM [%]
2 | CNC(=O)c1cc(Oc2ccc3nc(NC(=O)Nc4ccc(Cl)c(C(F)(F)F)c4)sc3c2)ccn1 | 106

tested on: K562; experiment: Antiproliferative activity against human K562 cells assessed as cell growth at 10^-8 M after 48 hrs by sulforhodamine B assay; assay type: functional; settings: K562, 48 h, read-out: Activity

Row | SMILES | growth at 0.01 µM [%]
3 | CNC(=O)c1cc(Oc2ccc3nc(NC(=O)Nc4ccc(Cl)c(C(F)(F)F)c4)sc3c2)ccn1 | 107

tested on: not listed separately; experiment: Antiproliferative activity against human HCT116 cells assessed as cell growth at 10^-6 M after 48 hrs by sulforhodamine B assay; assay type: functional; settings: HCT-116, 48 h, read-out: Activity

Row | SMILES | growth at 1 µM [%]
4 | CNC(=O)c1cc(Oc2ccc3nc(NC(=O)Nc4ccc(Cl)c(C(F)(F)F)c4)sc3c2)ccn1 | 80

tested on: NCI-H460; experiment: Antiproliferative activity against human NCI-H460 cells assessed as growth inhibition after 48 hrs by sulforhodamine B assay; assay type: functional; settings: NCI-H460, 48 h

Row | SMILES | GI50 [µM]
5 | CNC(=O)c1cc(Oc2ccc3nc(NC(=O)Nc4ccc(Cl)c(C(F)(F)F)c4)sc3c2)ccn1 | 1.79

tested on: T47D; experiment: Antiproliferative activity against human T47D cells assessed as cell growth at 10^-4 M after 48 hrs by sulforhodamine B assay; assay type: functional; settings: read-out: Activity

Row | SMILES | growth at 100 µM [%]
6 | CNC(=O)c1cc(Oc2ccc3nc(NC(=O)Nc4ccc(Cl)c(C(F)(F)F)c4)sc3c2)ccn1 | -16

tested on: 786-0; experiment: Antiproliferative activity against human 786-0 cells assessed as cell growth at […] after 48 hrs by sulforhodamine B assay; assay type: functional; settings: 786-0, 48 h, read-out: Activity

Row | SMILES | growth at 100 µM [%]
7 | CNC(=O)c1cc(Oc2ccc3nc(NC(=O)Nc4ccc(Cl)c(C(F)(F)F)c4)sc3c2)ccn1 | -77

tested on: not listed separately; experiment: Antiproliferative activity against human HOP92 cells assessed as cell growth at 10^-4 M after 48 hrs by sulforhodamine B assay; assay type: functional; settings: HOP-92, 48 h, read-out: Activity

Row | SMILES | growth at 100 µM [%]
8 | CNC(=O)c1cc(Oc2ccc3nc(NC(=O)Nc4ccc(Cl)c(C(F)(F)F)c4)sc3c2)ccn1 | -64

tested on: not listed separately; experiment: Antiproliferative activity against human SNB19 cells assessed as growth inhibition after 48 hrs by sulforhodamine B assay; assay type: functional; settings: SNB-19, 48 h

Row | SMILES | GI50 [µM] | LC50 (50% lethal concentration) [µM] | TGI [µM]
9 | CNC(=O)c1cc(Oc2ccc3nc(NC(=O)Nc4ccc(Cl)c(C(F)(F)F)c4)sc3c2)ccn1 | 2.77 | > 100 | 10.2

tested on: not listed separately; experiment: Antiproliferative activity against human OVCAR3 cells assessed as growth inhibition after 48 hrs by sulforhodamine B assay; assay type: functional; settings: OVCAR-3, 48 h

Row | SMILES | GI50 [µM] | TGI [µM]
10 | CNC(=O)c1cc(Oc2ccc3nc(NC(=O)Nc4ccc(Cl)c(C(F)(F)F)c4)sc3c2)ccn1 | 2.11 | 4.02

tested on: not listed separately; experiment: Antiproliferative activity against human PC3 cells assessed as cell growth at 10^-7 M after 48 hrs by sulforhodamine B assay; assay type: functional; settings: PC-3, 48 h, read-out: Activity

Row | SMILES | growth at 0.1 µM [%]
11 | CNC(=O)c1cc(Oc2ccc3nc(NC(=O)Nc4ccc(Cl)c(C(F)(F)F)c4)sc3c2)ccn1 | 87

tested on: not listed separately; experiment: Antiproliferative activity against human UACC257 cells assessed as growth inhibition after 48 hrs by sulforhodamine B assay; assay type: functional; settings: UACC-257, 48 h

Row | SMILES | GI50 [µM] | TGI [µM]
12 | CNC(=O)c1cc(Oc2ccc3nc(NC(=O)Nc4ccc(Cl)c(C(F)(F)F)c4)sc3c2)ccn1 | 3.37 | > 100

same assay, conditions: UACC-257, 48 h, read-out: LC50 (the source's name)

Row | SMILES | CC50 [µM]
13 | CNC(=O)c1cc(Oc2ccc3nc(NC(=O)Nc4ccc(Cl)c(C(F)(F)F)c4)sc3c2)ccn1 | > 100

tested on: K562; experiment: Antiproliferative activity against human K562 cells assessed as growth inhibition after 48 hrs by sulforhodamine B assay; assay type: functional; settings: K562, 48 h

Row | SMILES | TGI [µM]
14 | CNC(=O)c1cc(Oc2ccc3nc(NC(=O)Nc4ccc(Cl)c(C(F)(F)F)c4)sc3c2)ccn1 | > 100

same assay, conditions: K562, 48 h, read-out: LC50 (the source's name)

Row | SMILES | CC50 [µM]
15 | CNC(=O)c1cc(Oc2ccc3nc(NC(=O)Nc4ccc(Cl)c(C(F)(F)F)c4)sc3c2)ccn1 | > 100

tested on: NCI-H226; experiment: Antiproliferative activity against human NCI-H226 cells assessed as cell growth at 10^-8 M after 48 hrs by sulforhodamine B assay; assay type: functional; settings: NCI-H226, 48 h, read-out: Activity

Row | SMILES | growth at 0.01 µM [%]
16 | CNC(=O)c1cc(Oc2ccc3nc(NC(=O)Nc4ccc(Cl)c(C(F)(F)F)c4)sc3c2)ccn1 | 93

tested on: SN12C; experiment: Antiproliferative activity against human SN12C cells assessed as cell growth at 10^-4 M after 48 hrs by sulforhodamine B assay; assay type: functional; settings: read-out: Activity

Row | SMILES | growth at 100 µM [%]
17 | CNC(=O)c1cc(Oc2ccc3nc(NC(=O)Nc4ccc(Cl)c(C(F)(F)F)c4)sc3c2)ccn1 | 12

tested on: not listed separately; experiment: Antiproliferative activity against human Caki1 cells assessed as cell growth at 10^-7 M after 48 hrs by sulforhodamine B assay; assay type: functional; settings: CAKI-1, 48 h, read-out: Activity

Row | SMILES | growth at 0.1 µM [%]
18 | CNC(=O)c1cc(Oc2ccc3nc(NC(=O)Nc4ccc(Cl)c(C(F)(F)F)c4)sc3c2)ccn1 | 93

tested on: NCI-H226; experiment: Antiproliferative activity against human NCI-H226 cells assessed as growth inhibition after 48 hrs by sulforhodamine B assay; assay type: functional; settings: NCI-H226, 48 h

Row | SMILES | GI50 [µM]
19 | CNC(=O)c1cc(Oc2ccc3nc(NC(=O)Nc4ccc(Cl)c(C(F)(F)F)c4)sc3c2)ccn1 | 2.69
